The source of these data is patent publication US20180318383A1, “PEPTIDE HAVING NEURONAL LOSS PREVENTION AND REGENERATION EFFECTS, AND COMPOSITION CONTAINING SAME” (GEMVAX & KAEL CO., LTD., priority 2015, published 2018).

The subject of one assay is DCX. As to the kind of experiment: DCX expression in 3XTg-AD mice (western blotting, immunostaining). Conditions: hippocampus and whole brain; s.c. three times a week for two months; vs control and Donepezil, same amount. Type of assay: in vivo. The method, then: (§1) To test the efficacy of PEP1 on AD, AD transgenic mice (3XTg-AD) were purchased from Jackson Laboratory. Genetic characteristics of the transgenic mice are as follows: B6; 129-Psen1tm1Mpm Tg(APPSwe, tauP301L)1Lfa/Mmjax. […] One week after mice were confirmed as pregnant, new mice were delivered and weaned for 3 weeks. Two weeks later, mature mice were obtained.
(§2) During the preliminary breeding and the entire period of the experiment, a temperature was maintained at 23±2° C. and a relative humidity was maintained at 60±10%, and then the mice were raised under a 12-hour dark/light cycle. Experimental animals were divided into five groups, and each group included 10 animals. The divided experimental groups are as follows. […]
(§3) The PEP1, physiological saline, donepezil and scramble peptide were subcutaneously injected at each concentration three times a week for two months from the age of 12 months, and then two months after the injection, cognitive/memory behavior tests (passive avoidance test and Y maze test) were performed to examine a degree of improvement in cognitive function and memory function. After the brain was extracted to separate the hippocampus, the amounts of amyloid beta in the hippocampus and the whole brain, and the amounts of an amyloid beta oligomer and NFT generated by tau hyperphosphorylation were determined by western blotting and immunostaining. […]

The next assay has as its system Tau. Nature of the assay: NFT generation (Tau expression) in 3XTg-AD mice (western blotting, immunostaining). Type of assay: in vivo. Conditions: hippocampus and whole brain; vs control and Donepezil. The protocol:
as §1, §2, §3
(Immunoblotting shows a protein as a band on a membrane.)

The test system of a further assay is NSCs. Nature of the assay: Mitochondria cell membrane potential (JC-1). Type of assay: cell-based, rat. Conditions: 20 μM Aβ25-35 + PEP1 1, 10, 50 μM, 48 hours. The protocol:
NSCs were plated in a 96-well plate at a density of 5×10^5 cells/well. The cells were treated with 20 μM Aβ25-30 and each concentration of PEP1 (1, 10 or 50 μM) at 37° C. for 48 hours.
The mitochondria cell membrane potential was measured using a JC-1 mitochondria cell membrane potential observation kit. The mitochondria cell membrane potential was observed using an ELISA reader. […] By observing dead cells or unhealthy cells at an FITC wavelength, it was confirmed that JC-1 is in a monomer state.

The test system of the next assay is β-amyloid. As to the kind of experiment: Expression levels of all types of Aβs in 3XTg-AD mice (western blotting). The conditions noted are these: hippocampus and whole brain; vs control and Donepezil. Type of assay: in vivo. The protocol: as §1, §2, §3

On to “EARPALLTSRLRFIPK (homo sapiens) [PEP1, hTERT-derived peptide consisting of 16 amino acids, telomerase location [611-626]]”, for which the DCX result in the assay with DCX is reported as “increased”. For the same sequence, the “expression level of Tau” value with Tau is given as “decreased”. For the same sequence, the “mitochondria cell membrane potential” value in the assay with NSCs is recorded as “restored the cell membrane potential up to a level in a normal range”. Also, the “expression levels of all types of Aβs” value with β-amyloid is reported as “decreased”.
